Assay in all cases: NCI tumour cell line growth inhibition, 48 h
The subject of assay [1] is A498.
Assay [2] deals with ACHN.
Assay [3] deals with BT-549.
For assay [4], the system named is COLO 205.
Assay [5] concerns EKVX.
Assay [6] has as its system HCT-116.
Assay [7] deals with HOP-92.
Assay [8] has as its system Hs-578T.
Assay [9] concerns KM12.
For assay [10], the system named is MCF7.
Assay [11] concerns MDA-MB-435.
The subject of assay [12] is MDA-N.
The subject of assay [13] is NCI-H23.
Assay [14] deals with NCI/ADR-RES.
Assay [15] relates to OVCAR-4.
For assay [16], the system named is SF-295.
Assay [17] deals with SK-MEL-2.
The test system of assay [18] is SK-MEL-5.
For assay [19], the system named is SN12C.
In assay [20] the test system is T47D.

SMILES strings stand for the structures.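 Dose response: 5 concentrations. Exposure: 48 h. Format: 96-well plates. Endpoint: linear interpolation; highest concentration if not reached. At the GI50, growth is halved.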 Activity calls are given as the source filed them. Cut-off read from the data, not from the text of the source: active = GI50 up to about 1.1 µM and inactive = higher.

`CC(CCCC1SCC2NC(=O)NC21)C(=O)O` (stereo not given): the GI50 in assay [1], in [2], in assay [3], in [4], in assay [5] and in assay [6] was > 100 µM (inactive) throughout. For the same compound, the GI50 in [7], in [8], in assay [9], in [10], in assay [11] and in [12] was > 100 µM (inactive) throughout. Moreover, the GI50 in assay [13], in assay [14], in assay [15], in assay [16], in assay [17] and in assay [18] was > 100 µM (inactive) in each case. Moreover, the GI50 in assay [19] and in assay [20] was > 100 µM (inactive) in each case.
For `C=C(C1=CC(=O)C(C)(C)O1)[C@@H]1CC=C([C@@H]2CC[C@H]3[C@@]2(C)CC[C@H]2C(C)(C)C(=O)[C@H](O)C[C@]32C)[C@H](O)O1`, the GI50 in assay [1] was 5.16 µM (inactive); in [2], 1.66 µM (inactive); in [3] it was 5.38 µM (inactive); in assay [4] it was 1.8 µM (inactive); in assay [5], 10.1 µM (inactive); in [6] it was 1.63 µM (inactive). Also, the GI50 in [7] was 1.98 µM (inactive); in assay [8] it was 3.27 µM (inactive); in assay [9] it was 3.86 µM (inactive); in [10] it was 0.546 µM (active); in assay [11], 2.49 µM (inactive); in [12] it was 1.67 µM (inactive). For the same compound, the GI50 is 3.85 µM (inactive) in assay [13]; 3.98 µM (inactive) in assay [14]; 3.11 µM (inactive) in [15]; 8.04 µM (inactive) in [16]; 2.2 µM (inactive) in assay [17]; 11.7 µM (inactive) in assay [18]. Besides, the GI50 in [19] is 1.98 µM (inactive); in assay [20], 1.44 µM (inactive).
`CCCC(=O)Nc1cc(C(=O)N2C[C@@H]3C[C@]34C2=CC(=O)c2[nH]cc(C)c24)n(COC)c1`: the GI50 was 10 µM (inactive) in assay [1]; 5.93 µM (inactive) in assay [2]; 8.43 µM (inactive) in assay [3]; 5.93 µM (inactive) in [4]; 12.6 µM (inactive) in assay [5]; 7.87 µM (inactive) in assay [6]. The GI50 in [7] was 1.4 µM (inactive); in [8] it was 14.5 µM (inactive); in [9], 8.85 µM (inactive); in assay [10] it was 1.36 µM (inactive); in [11] it was 9.06 µM (inactive); in assay [12], 8.65 µM (inactive). In addition, the GI50 in [13] is 1.56 µM (inactive); in assay [14], 13.9 µM (inactive); in assay [15], 8.02 µM (inactive); in [16], 19.9 µM (inactive); in assay [17], 2.38 µM (inactive); in [18], 1.54 µM (inactive). The GI50 in assay [19] is 10.6 µM (inactive); in assay [20] it was 2.78 µM (inactive).
Regarding `CO/C=C(/C(=O)OC)c1ccccc1COc1cccc(C(F)(F)F)c1`, the GI50 is 4.85 µM (inactive) in assay [1]; 3.63 µM (inactive) in assay [2]; 6.28 µM (inactive) in assay [3]; 6.61 µM (inactive) in assay [4]; 3.56 µM (inactive) in assay [5]; 2.4 µM (inactive) in assay [6]. For the same compound, the GI50 in assay [7] was 5.65 µM (inactive); in assay [8] it was 10.3 µM (inactive); in assay [9], 11.3 µM (inactive); in assay [10], 5.35 µM (inactive); in [11], 1.01 µM (active); in [12], 2.54 µM (inactive). Besides, the GI50 in assay [13] is 2.26 µM (inactive); in assay [14] it was 5.31 µM (inactive); in assay [15], 8 µM (inactive); in assay [16], 3.3 µM (inactive); in assay [17], 11.6 µM (inactive); in [18] it was 0.473 µM (active). Further, the GI50 was 8.28 µM (inactive) in [19] and 15 µM (inactive) in [20].
As for `COC(=O)c1c(O)ccc2c1c1c(n2Cc2ccccc2OC)C(=O)c2ccccc2C1=O`, the GI50 in assay [1] is 40 µM (inactive); in assay [2], 7.53 µM (inactive); in assay [3] it was 13.3 µM (inactive); in assay [4], 1.83 µM (inactive); in assay [5], 24.5 µM (inactive); in [6], 5.46 µM (inactive). Also, the GI50 in assay [7] was 3.78 µM (inactive); in assay [8], 18 µM (inactive); in assay [9], 9.75 µM (inactive); in [10] it was 6.34 µM (inactive); in [11], 10.3 µM (inactive); in assay [12], 13.3 µM (inactive). In addition, the GI50 was 14.1 µM (inactive) in assay [13]; 6.95 µM (inactive) in [14]; 11.7 µM (inactive) in assay [15]; 18.1 µM (inactive) in assay [16]; 13.9 µM (inactive) in assay [17]; 13.1 µM (inactive) in assay [18]. In addition, the GI50 was 10 µM (inactive) in assay [19] and 2.36 µM (inactive) in [20].

Source of the values: ChEMBL document CHEMBL1201862, “PubChem BioAssay data set” (2004).
